In patent US20230029385A1, “2-METHYL-AZA-QUINAZOLINES” (Bayer Aktiengesellschaft, priority 2019, published 2023):

How the values were obtained:
[1] = target: T1, human SOS1 (hSOS1) with human K-RasG12C (hK-RasG12C) (Homo sapiens, UniProt Q07889); experiment: hK-RasG12C interaction assay with hSOS1 (Biochemical Assay 1, HTRF); assay type: binding; details: mean, read-out: K-RasG12C- SOS interaction assay IC50 - [mol/l] (mean)
T1 construct: His10-hSOS1; made in house; host or cells: E. coli BL21 (DE3)
T1 sequence (Q07889 with tags, fused parts or gaps): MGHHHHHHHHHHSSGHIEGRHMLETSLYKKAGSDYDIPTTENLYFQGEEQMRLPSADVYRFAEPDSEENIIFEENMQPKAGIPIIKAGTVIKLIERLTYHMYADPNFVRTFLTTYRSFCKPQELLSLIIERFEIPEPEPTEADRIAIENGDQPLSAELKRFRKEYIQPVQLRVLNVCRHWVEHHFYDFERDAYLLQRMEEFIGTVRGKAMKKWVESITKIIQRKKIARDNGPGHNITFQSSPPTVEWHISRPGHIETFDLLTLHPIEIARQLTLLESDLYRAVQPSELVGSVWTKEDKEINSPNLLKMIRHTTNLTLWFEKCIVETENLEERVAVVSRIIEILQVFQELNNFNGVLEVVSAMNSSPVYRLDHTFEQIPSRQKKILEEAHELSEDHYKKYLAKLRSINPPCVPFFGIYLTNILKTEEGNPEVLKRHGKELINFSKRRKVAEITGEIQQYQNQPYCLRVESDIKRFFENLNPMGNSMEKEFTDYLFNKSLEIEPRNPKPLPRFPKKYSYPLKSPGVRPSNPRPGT
Experimental: Biochemical Assay 1: hK-RasG12C Interaction Assay with hSOS1
This assay quantifies the equilibrium interaction of human SOS1 (hSOS1) with human K-Ras^G12C (hK-RasG12C). Detection of the interaction is achieved by measuring homogenous time-resolved fluorescence resonance energy transfer (HTRF) from antiGST-Europium (FRET donor) bound to GST-K-RasG12C to anti-6His-XL665 bound to His-tagged hSOS1 (FRET-acceptor).
The assay buffer containes 5 mM HEPES pH 7.4 (Applichem), 150 mM NaCl (Sigma), 10 mM EDTA (Promega), 1 mM DTT (Thermofisher), 0.05% BSA Fraction V, pH 7.0, (ICN Biomedicals), 0.0025% (v/v) Igepal (Sigma) and 100 mM KF (FLUKA).
The expression and purification of N-terminal GST-tagged hK-RasG12C and N-terminal His-tagged hSOS1 is described below. Concentrations of protein batches used are optimized to be within the linear range of the HTRF signal. A Ras working solution is prepared in assay buffer containing typically 10 nM GST-hK-RasG12C and 2 nM antiGST-Eu(K) (Cisbio, France). A SOS1 working solution is prepared in assay buffer containing typically 20 nM His-hSOS1 and 10 nM anti-6His-XL665 (Cisbio, France). An inhibitor control solution is prepared in assay buffer containing 10 nM anti-6His-XL665 without hSOS1.
(§1) Fifty nl of a 100-fold concentrated solution of the test compound in DMSO are transferred into a black microtiter test plate (384 or 1536, Greiner Bio-One, Germany). For this, either a Hummingbird liquid handler (Digilab, Mass., USA) or an Echo acoustic system (Labcyte, Calif., USA) is used.
(§2) All steps of the assay are performed at 20° C. A volume of 2.5 μl of the Ras working solution is added to all wells of the test plate using a Multidrop dispenser (Thermo Labsystems). After 2 min preincubation, 2.5 μl of the SOS1 working solution are added to all wells except for those wells at the side of the test plate that are subsequently filled with 2.5 μl of the inhibitor control solution. After 60 min incubation the fluorescence is measured with a Pherastar (BMG, Germany) using the HTRF module (excitation 337 nm, emission 1: 620nm, emission 2: 665 nm).
(§3) The ratiometric data (emission 2 divided by emission 1) are normalized using the controls (DMSO=0% inhibition, inhibition control wells with inhibitor control solution=100% inhibition). Compounds are tested in duplicates at up to 11 concentrations (for example 20 μM, 5.7 μM, 1.6 μM, 0.47 μM, 0.13 μM, 38 nM, 11 nM, 3.1 nM, 0.89 nM, 0.25 nM and 0.073 nM). IC50 values are calculated by 4-Parameter fitting using a commercial software package (Genedata Screener, Switzerland).

[2] = target: T2, hK-RasG12C activation by hSOS1 (Homo sapiens, UniProt Q07889); experiment: hK-RasG12C activation assay by hSOS1 (Biochemical Assay 3, HTRF); details: mean; assay 3, loading with fluorescent GTP-analog; read-out: K-RasG12C activation by SOS IC50 - [mol/l] (mean)
T2 construct: His10-hSOS1; made in house; host or cells: E. coli BL21 (DE3)
T2 sequence (Q07889 with tags, fused parts or gaps): T1 sequence (Q07889 with tags, fused parts or gaps)
From the text: Biochemical Assay 3: hK-RasG12C Activation Assay by hSOS1
K-Ras is a small GTPase that can bind GDP and GTP. The guanine nucleotide exchange factor SOS1 catalyzes the activation of K-Ras by promoting the exchange of GDP to GTP. SOS1 binds to K-Ras-GDP thereby opening the GDP-binding pocket to facilitate GDP release. Rebinding of excess nucleotide leads to dissociation of the K-Ras-SOS1 intermediate complex leaving K-Ras loaded with the nucleotide.
This assay quantifies human SOS1- (hSOS1-) mediated loading of human K-Ras^G12C-GDP (hK-RasG12C-GDP) with a fluorescent GTP-analog. Detection of successful loading is achieved by measuring homogenous time-resolved fluorescence resonance energy transfer (HTRF) from antiGST-Terbium (FRET donor) bound to GST-hK-RasG12C (see below) to the loaded fluorescent GTP analog (FRET-acceptor).
The fluorescent GTP-analog EDA-GTP-Dy647P1 (2′/3′-O-(2-Aminoethyl-carbamoyl)-guanosine-5′-triphosphate labelled with Dy647P1 (Dyomics GmbH, Germany)) is synthesized by Jena Biosciences GmbH (Germany) and supplied as a 1mM aqueous solution.
(§4) The assay buffer containes 10 mM HEPES pH 7.4 (Applichem), 150 mM NaCl (Sigma), 5 mM MgCl2 (Sigma), 1 mM DTT (Thermofisher), 0.05% BSA Fraction V, pH 7.0, (ICN Biomedicals), 0.0025% (v/v) Igepal (Sigma).
The expression and purification of N-terminal GST-tagged human K-RasG12C and N-terminal His-tagged hSOS1 is described below. Concentrations of protein batches used are optimized to be within the linear range of the HTRF signal. A hRas working solution is prepared in assay buffer containing typically 100 nM GST-hK-RasG12C and 2 nM antiGST-Tb (Cisbio, France). A hSOS1 working solution is prepared in assay buffer containing typically 20nM hSOS1 and 200 nM EDA-GTP-Dy647P1. An inhibitor control solution is prepared in assay buffer containing 200 nM EDA-GTP-Dy647P1 without hSOS1.
as §1
as §2, with “the hRas” for “the Ras”, “After 10” for “After 2”, “the hSOS1” for “the SOS1”, “After 30” for “After 60”, “1: 620 nm,” for “1: 620nm,”
as §3

[3] = target: T3, hK-RasG12C activation by hSOS1 at high GTP concentration (Homo sapiens, UniProt Q07889); experiment: hK-RasG12C activation assay by hSOS1 at high GTP concentration (Biochemical Assay 2, HTRF); details: mean; assay 2, high concentration of 50 μM GTP; read-out: K-Ras activation by SOS high GTP (off-HTRF) IC50 - [mol/l] (mean)
T3 construct: His10-hSOS1; made in house; host or cells: E. coli BL21 (DE3)
T3 sequence (Q07889 with tags, fused parts or gaps): T1 sequence (Q07889 with tags, fused parts or gaps)
From the text: Biochemical Assay 2: hK-RasG12C Activation Assay by hSOS1 at High GTP Concentration
This assay quantifies human SOS1-mediated nucleotide exchange of human K-Ras^G12C (hK-RasG12C) preloaded with a fluorescent […] and in presence of an excess of free GTP. Loaded hK-RasG12C generates a high HTRF-signal by energy transfer from antiGST-Terbium (FRET donor) bound to hK-Ras to the loaded fluorescent GDP analog (FRET-acceptor). hSOS1 activity exchanges the fluorescent GDP for non-fluorescent GTP and therefore leads to a reduction of the HTRF signal.
The fluorescent GDP-analog EDA-GDP-Dy647P1 (2′/3′-O-(2-Aminoethyl-carbamoyl)-guanosine-5′-diphosphate labelled with Dy647P1 (Dyomics GmbH, Germany)) is synthesized by Jena Biosciences GmbH (Germany) and supplied as a 1 mM aqueous solution.
The expression and purification of N-terminal GST-tagged human K-RasG12C and N-terminal His-tagged human SOS1 is described below. Concentrations of protein batches used are optimized to be within the linear range of the HTRF signal.
Preparation of GST-tagged hK-RasG12C loaded with fluorescent nucleotide is performed as follows: incubation of 11.5 μM hK-Ras^G12C with 5-fold excess GDP-Dy647 nucleotide (54 μM) in 500 μl NLS-buffer (RAS activation Kit Jena Bioscience, Kat. #PR-950) for 10 min at 37° C. Addition of 20 μl 1 M MgCl2 (Sigma) to final 40 mM and store on ice. Purification into buffer (10 mM HEPES pH 7.4 (Applichem), 150 mM NaCl (Sigma), 5 mM MgCl2 (Sigma)) by use of a PD-Minitrap desalting column (GE Healthcare). Concentration of 1 ml purified hK-Ras-GDP-Dy647 is approx. 4-5 μM.
as §4
A Ras working solution is prepared in assay buffer containing typically 80 nM loaded GST-hK-RasG12C-EDA-GDP-Dy647P1 and 2 nM antiGST-Tb (Cisbio, France). A hSOS1 working solution is prepared in assay buffer containing typically 8 nM His-hSOS1 and 100 μM GTP (Jena Bioscience, Germany). An inhibitor control solution is prepared in assay buffer containing the same concentration of hSOS1 without GTP.
Alternatively, the inhibitor control solution is prepared by supplementing the hSOS1 working solution with 20 μM of 6,7-dimethoxy-N-[(1R)-1-(1-naphthyl)ethyl]quinazolin-4-amine which is used to calibrate the assay.
as §1
as §2, with “hSOS1” for “SOS1”, “20” for “60”, “620 nm,” for “620nm,”
as §3

[4] = target: T4, K-Ras-wt activation by SOS (Homo sapiens, UniProt Q07889); experiment: K-Ras-wt activation by SOS; assay type: biochemical; details: mean; K-Ras wild type; read-out: K-Ras-wt activation by SOS IC50 - [mol/l] (mean)
T4 sequence (Q07889 564-1049): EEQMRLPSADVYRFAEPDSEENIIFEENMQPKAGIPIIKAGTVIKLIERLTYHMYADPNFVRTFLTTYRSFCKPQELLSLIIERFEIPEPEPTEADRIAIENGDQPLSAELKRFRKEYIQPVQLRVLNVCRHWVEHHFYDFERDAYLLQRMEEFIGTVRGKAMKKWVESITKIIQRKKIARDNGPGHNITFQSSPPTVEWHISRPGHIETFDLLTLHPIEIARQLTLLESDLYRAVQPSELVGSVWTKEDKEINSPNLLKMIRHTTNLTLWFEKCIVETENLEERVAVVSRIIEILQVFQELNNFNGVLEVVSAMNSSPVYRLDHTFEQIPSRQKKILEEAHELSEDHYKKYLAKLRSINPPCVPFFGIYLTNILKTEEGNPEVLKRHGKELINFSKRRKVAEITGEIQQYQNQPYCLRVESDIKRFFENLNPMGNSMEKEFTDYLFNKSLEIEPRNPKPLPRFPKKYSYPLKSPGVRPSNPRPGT

[5] = combination of BAY-293 with ARS-853; cited from earlier work

Question: Which IC50 [1] does the source give for `CC(=O)N[C@H]1CCN(c2cc3c(N[C@H](C)c4cccc(C(F)F)c4F)nc(C)nc3cn2)C1` here?
Answer: Its IC50 is 79.8 nM.

Question: And the IC50 [2]?
Answer: Its IC50 is 144 nM.

Question: And the IC50 [3]?
Answer: Its IC50 is 197 nM.

Question: What about the IC50 [4] of the same compound?
Answer: Its IC50 is 101 nM.

Question: With `CNCc1ccccc1-c1csc(C(C)Nc2nc(C)nc3cc(OC)c(OC)cc23)c1` (stereo not shown) [BAY-293] as the compound, how does the “anti-proliferative activity in vitro of the combination” value [5] read?
Answer: The value was “Synergistic anti-proliferative activity”.

Question: Which results are given for `CC(=O)N[C@@H]1CCN(c2cc3c(N[C@H](C)c4cccc(C(F)F)c4F)nc(C)nc3c(C)n2)C1`?
Answer: IC50 [1]: 56.8 nM; IC50 [2]: 209 nM; IC50 [3]: 255 nM; IC50 [4]: 83.2 nM

Question: For `CCOc1cc2c(N[C@H](C)c3cccc(C(F)F)c3F)nc(C)nc2cn1`, which IC50 [1] is on record?
Answer: The IC50 was 134 nM.

Question: And the IC50 [2]?
Answer: The IC50 was 357 nM.

Question: What about the IC50 [3] of the same compound?
Answer: The IC50 was 851 nM.

Question: And the IC50 [4]?
Answer: Its IC50 is 308 nM.

Question: With `Cc1nc(N[C@H](C)c2cccc(C(F)F)c2F)c2cc(F)ncc2n1` as the compound, how does the IC50 [1] read?
Answer: The IC50 was greater than 20000 nM.

Question: What about the IC50 [2] of the same compound?
Answer: Its IC50 is greater than 20000 nM.

Question: What about the IC50 [3] of the same compound?
Answer: Its IC50 is greater than 20000 nM.

Question: And the IC50 [4]?
Answer: The IC50 was greater than 20000 nM.

Question: For `Cc1nc(N[C@H](C)c2cccc(C(F)F)c2F)c2cc(F)nc(C)c2n1`, which IC50 [1] is on record?
Answer: The IC50 was greater than 20000 nM.

Question: And the IC50 [2]?
Answer: Its IC50 is greater than 20000 nM.

Question: What about the IC50 [4] of the same compound?
Answer: Its IC50 is greater than 20000 nM.

Question: What does the source list for `Cc1nc(N[C@H](C)c2cccc(C(F)F)c2F)c2cc(N3CCCC3)ncc2n1`?
Answer: IC50 [1]: 185 nM; IC50 [2]: 251 nM; IC50 [3]: 320 nM; IC50 [4]: 172 nM

Question: Which IC50 [1] does the source give for `CC(=O)N[C@@H]1CCN(c2cc3c(N[C@H](C)c4cccc(C(F)F)c4F)nc(C)nc3cn2)C1` here?
Answer: Its IC50 is 77.3 nM.

Question: And the IC50 [2]?
Answer: The IC50 was 110 nM.

Question: What about the IC50 [3] of the same compound?
Answer: Its IC50 is 187 nM.

Question: And the IC50 [4]?
Answer: The IC50 was 92.3 nM.
